Data published in US20250034216A1, “STEREOSELECTIVE COVALENT LIGANDS FOR ONCOGENIC AND IMMUNOLOGICAL PROTEINS” (The Scripps Research Institute, priority 2021, published 2025).

Tests used:
Assay in all cases: IA-DTB cysteine engagement
Format in all cases: binding
PSME1_C22 = target: T1, PSME1_C22 (Homo sapiens, UniProt Q06323); conditions: 22Rv1 cells, relative to DMSO; for % engagement PSME1_22: 5 μM probe, 1 h (FIG. 5B); for % engagement PSME1_C22: 20 μM probe, 1 h
T1 construct: endogenous in cells; host or cells: 22Rv1
Method in brief: (§1)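 First, cells are exposed to electrophilic probes in situ. Next, lysates are labeled with IA-DTB (1 h, ambient temperature), reduced, alkylated and trypsin-digested. Then, IA-DTB peptides are enriched on streptavidin, TMT-labeled and analyzed, with ratios taken against DMSO channels.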

HIRA_C673 = target: T2, HIRA_C673 (Homo sapiens, UniProt P54198); conditions: 22Rv1 cells, 20 μM probe, 1 h, relative to DMSO
T2 construct: endogenous in cells; host or cells: 22Rv1
Method in brief: as §1

PRAF2_C34 = target: T3, PRAF2_C34 (Homo sapiens, UniProt O60831); conditions: 22Rv1 cells, 20 μM probe, 1 h, relative to DMSO
T3 construct: endogenous in cells; host or cells: 22Rv1
T3 sequence (O60831 1-178): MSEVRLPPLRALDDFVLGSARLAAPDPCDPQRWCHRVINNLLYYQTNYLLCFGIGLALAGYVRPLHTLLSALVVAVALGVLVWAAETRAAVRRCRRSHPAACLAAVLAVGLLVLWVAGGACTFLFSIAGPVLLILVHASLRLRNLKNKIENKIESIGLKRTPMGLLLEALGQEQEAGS
Method in brief: as §1

RAB40B_C77 = target: T4, RAB40B_C77 (Homo sapiens, UniProt Q12829); conditions: 22Rv1 cells, 20 μM probe, 1 h, relative to DMSO
T4 construct: endogenous in cells; host or cells: 22Rv1
T4 sequence (Q12829 1-278): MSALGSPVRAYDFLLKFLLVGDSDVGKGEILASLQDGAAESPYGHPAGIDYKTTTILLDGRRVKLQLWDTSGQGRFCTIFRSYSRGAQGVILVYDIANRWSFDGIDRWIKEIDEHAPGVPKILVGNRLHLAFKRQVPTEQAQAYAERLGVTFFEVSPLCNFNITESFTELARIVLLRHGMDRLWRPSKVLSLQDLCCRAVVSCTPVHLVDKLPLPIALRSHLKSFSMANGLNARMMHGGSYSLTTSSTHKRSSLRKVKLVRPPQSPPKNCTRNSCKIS
Method in brief: as §1

SPATA2_C41 = target: T5, SPATA2_C41 (Homo sapiens, UniProt Q9UM82); conditions: 22Rv1 cells, 20 μM probe, 1 h, relative to DMSO
T5 construct: endogenous in cells; host or cells: 22Rv1
T5 sequence (Q9UM82 1-520): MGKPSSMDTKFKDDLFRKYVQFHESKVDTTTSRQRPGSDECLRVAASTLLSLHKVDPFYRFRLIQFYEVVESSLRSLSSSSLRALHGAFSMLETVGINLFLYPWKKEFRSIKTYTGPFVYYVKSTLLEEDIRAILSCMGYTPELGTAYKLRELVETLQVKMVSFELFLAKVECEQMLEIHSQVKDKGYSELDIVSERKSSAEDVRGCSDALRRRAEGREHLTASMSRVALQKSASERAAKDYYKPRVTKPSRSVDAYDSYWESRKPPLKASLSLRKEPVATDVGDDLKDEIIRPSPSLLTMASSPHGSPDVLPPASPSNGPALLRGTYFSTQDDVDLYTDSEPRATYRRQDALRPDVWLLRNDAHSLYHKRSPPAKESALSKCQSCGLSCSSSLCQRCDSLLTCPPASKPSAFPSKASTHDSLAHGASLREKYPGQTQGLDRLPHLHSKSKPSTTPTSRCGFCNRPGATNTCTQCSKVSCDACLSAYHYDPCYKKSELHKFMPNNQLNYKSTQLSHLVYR
Method in brief: as §1

T2 sequence (P54198 whole entry): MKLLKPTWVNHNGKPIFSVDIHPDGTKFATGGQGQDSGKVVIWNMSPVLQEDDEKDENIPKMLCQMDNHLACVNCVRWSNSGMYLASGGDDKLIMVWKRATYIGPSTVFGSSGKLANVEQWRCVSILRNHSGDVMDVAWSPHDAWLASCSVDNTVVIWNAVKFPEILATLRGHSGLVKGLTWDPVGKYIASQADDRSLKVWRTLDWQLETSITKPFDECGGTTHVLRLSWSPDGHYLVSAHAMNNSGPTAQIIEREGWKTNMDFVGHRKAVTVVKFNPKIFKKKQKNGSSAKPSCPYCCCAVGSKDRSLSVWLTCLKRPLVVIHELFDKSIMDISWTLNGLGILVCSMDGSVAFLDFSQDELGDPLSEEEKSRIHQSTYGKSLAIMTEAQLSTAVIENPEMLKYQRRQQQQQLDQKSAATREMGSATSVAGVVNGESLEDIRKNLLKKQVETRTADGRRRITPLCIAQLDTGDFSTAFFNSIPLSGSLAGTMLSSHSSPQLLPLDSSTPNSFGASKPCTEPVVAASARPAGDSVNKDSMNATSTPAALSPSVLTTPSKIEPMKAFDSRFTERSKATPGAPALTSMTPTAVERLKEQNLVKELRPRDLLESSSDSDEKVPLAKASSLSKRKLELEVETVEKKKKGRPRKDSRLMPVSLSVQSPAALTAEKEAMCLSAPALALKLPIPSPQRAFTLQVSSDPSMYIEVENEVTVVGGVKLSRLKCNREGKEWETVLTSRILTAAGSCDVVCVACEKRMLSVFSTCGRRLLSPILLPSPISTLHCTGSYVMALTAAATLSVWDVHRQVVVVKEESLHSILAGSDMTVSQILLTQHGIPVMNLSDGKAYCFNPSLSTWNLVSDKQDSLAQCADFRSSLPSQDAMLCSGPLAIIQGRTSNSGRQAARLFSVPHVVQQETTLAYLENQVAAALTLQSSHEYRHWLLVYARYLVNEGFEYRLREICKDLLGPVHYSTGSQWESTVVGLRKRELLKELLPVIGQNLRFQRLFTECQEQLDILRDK
T1 sequence (Q06323 whole entry): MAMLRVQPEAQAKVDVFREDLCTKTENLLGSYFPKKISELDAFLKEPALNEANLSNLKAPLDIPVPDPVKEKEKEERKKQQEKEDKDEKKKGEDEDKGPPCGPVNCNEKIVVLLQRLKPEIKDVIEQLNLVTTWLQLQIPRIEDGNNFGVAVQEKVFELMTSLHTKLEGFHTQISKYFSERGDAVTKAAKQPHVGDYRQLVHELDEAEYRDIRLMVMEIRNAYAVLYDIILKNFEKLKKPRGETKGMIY

Row | SMILES | % engagement PSME1_22 (PSME1_C22) [%] | % engagement HIRA_C673 (HIRA_C673) [%] | % engagement PRAF2_C34 (PRAF2_C34) [%] | % engagement PSME1_C22 (PSME1_C22) [%] | % engagement RAB40B_C77 (RAB40B_C77) [%] | % engagement SPATA2_C41 (SPATA2_C41) [%]
1 | CC#CC(=O)N1C[C@H](c2ccc(Br)cc2)[C@@H]1C(=O)Nc1cccc2cccnc12 [MY-45B, (2R,3S)-3-(4-bromophenyl)-1-(but-2-ynoyl)-N-(quinolin-8-yl)azetidine-2-carboxamide] | 69.50 | – | – | – | – | –
2 | C=CC(=O)N1C[C@H](c2ccc(Br)cc2)[C@H]1C(=O)Nc1cccc2cccnc12 [MY-3A, (2S,3S)-1-acryloyl-3-(4-bromophenyl)-N-(quinolin-8-yl)azetidine-2-carboxamide] | – | 11.5 | 55.5 | −14.5 | −39 | 24.5
3 | C=CC(=O)N1C[C@H](c2ccc(Br)cc2)[C@@H]1C(=O)Nc1cccc2cccnc12 [MY-1B, (2R,3S)-1-acryloyl-3-(4-bromophenyl)-N-(quinolin-8-yl)azetidine-2-carboxamide] | 44.38 | 3 | 74 | 67.75 | 100 | 91.75
4 | C=CC(=O)N1C[C@H](c2ccc(Br)cc2)[C@H]1C(=O)Nc1cccc2cccnc12 [MY-3B, (2S,3S)-1-acryloyl-3-(4-bromophenyl)-N-(quinolin-8-yl)azetidine-2-carboxamide] | – | 73 | 78.5 | −31.75 | 12.5 | 29.5
5 | C=CC(=O)N1C[C@@H](c2ccc(Br)cc2)[C@H]1C(=O)Nc1cccc2cccnc12 [MY-1A, (2S,3R)-1-acryloyl-3-(4-bromophenyl)-N-(quinolin-8-yl)azetidine-2-carboxamide] | – | −12 | 76 | −2.25 | 100 | 58
